# Measured values from ChEMBL document CHEMBL4052714, “Synthesis and antibacterial activity of novel 4″-O-(1-aralkyl-1,2,3-triazol-4-methyl-carbamoyl) azithromycin analogs” (2017).
# How the values were obtained:
# Assay type in all cases: functional
# Streptococcus pyogenes [1] = assay: Antibacterial activity against erythromycin-susceptible Streptococcus pyogenes isolate S2
# Staphylococcus aureus [2] = assay: Antibacterial activity against erythromycin-susceptible Staphylococcus aureus ATCC 25923
# Streptococcus pneumoniae [3] = assay: Antibacterial activity against erythromycin-susceptible Streptococcus pneumoniae ATCC 49619
# Streptococcus pneumoniae [4] = assay: Antibacterial activity against erythromycin-resistant Streptococcus pneumoniae A22072 expressing mefA gene
# Staphylococcus aureus [5] = assay: Antibacterial activity against methicillin-susceptible Staphylococcus aureus ATCC 29213
# Streptococcus pneumoniae [6] = assay: Antibacterial activity against erythromycin-resistant Streptococcus pneumoniae B1 expressing ermB gene
# Escherichia coli = assay: Antibacterial activity against Escherichia coli ATCC 25922
# Pseudomonas aeruginosa = assay: Antibacterial activity against Pseudomonas aeruginosa ATCC 27853
# Streptococcus pyogenes [7] = assay: Antibacterial activity against erythromycin-resistant Streptococcus pyogenes isolate R2
# Streptococcus pneumoniae [8] = assay: Antibacterial activity against erythromycin-resistant Streptococcus pneumoniae AB11 expressing ermB/mefA gene
# Streptococcus pneumoniae [9] = assay: Potency index, ratio of azithromycin MIC to compound MIC for erythromycin-resistant Streptococcus pneumoniae B1 expressing ermB gene
# Streptococcus pneumoniae [10] = assay: Potency index, ratio of azithromycin MIC to compound MIC for erythromycin-resistant Streptococcus pneumoniae A22072 expressing mefA gene
# Streptococcus pneumoniae [11] = assay: Potency index, ratio of azithromycin MIC to compound MIC for erythromycin-resistant Streptococcus pneumoniae AB11 expressing ermB/mefA gene
# Streptococcus pneumoniae [12] = assay: Potency index, ratio of clarithromycin MIC to compound MIC for erythromycin-resistant Streptococcus pneumoniae B1 expressing ermB gene
# Streptococcus pneumoniae [13] = assay: Potency index, ratio of clarithromycin MIC to compound MIC for erythromycin-resistant Streptococcus pneumoniae A22072 expressing mefA gene
# Streptococcus pneumoniae [14] = assay: Potency index, ratio of clarithromycin MIC to compound MIC for erythromycin-resistant Streptococcus pneumoniae AB11 expressing ermB/mefA gene
SMILES,MIC (Streptococcus pyogenes [1]),MIC (Staphylococcus aureus [2]),MIC (Streptococcus pneumoniae [3]),MIC (Streptococcus pneumoniae [4]),MIC (Staphylococcus aureus [5]),MIC (Streptococcus pneumoniae [6]),MIC (Escherichia coli),MIC (Pseudomonas aeruginosa),MIC (Streptococcus pyogenes [7]),MIC (Streptococcus pneumoniae [8]),Ratio (Streptococcus pneumoniae [9]),Ratio (Streptococcus pneumoniae [10]),Ratio (Streptococcus pneumoniae [11]),Ratio (Streptococcus pneumoniae [12]),Ratio (Streptococcus pneumoniae [13]),Ratio (Streptococcus pneumoniae [14])
CC[C@H]1OC(=O)[C@H](C)[C@@H](O[C@H]2C[C@@](C)(OC)[C@@H](OC(=O)NCc3cn(Cc4c(Cl)cccc4Cl)nn3)[C@H](C)O2)[C@H](C)[C@@H](O[C@@H]2O[C@H](C)C[C@H](N(C)C)[C@H]2O)[C@](C)(O)C[C@@H](C)CN(C)[C@H](C)[C@@H](O)[C@]1(C)O,0.03 µg/mL,1 µg/mL,0.5 µg/mL,0.5 µg/mL,16 µg/mL,0.5 µg/mL,32 µg/mL,32 µg/mL,32 µg/mL,0.5 µg/mL,–,–,–,–,–,–
CC[C@H]1OC(=O)[C@H](C)[C@@H](O[C@H]2C[C@@](C)(OC)[C@@H](OC(=O)NCc3cn(Cc4cccc(C)c4)nn3)[C@H](C)O2)[C@H](C)[C@@H](O[C@@H]2O[C@H](C)C[C@H](N(C)C)[C@H]2O)[C@](C)(O)C[C@@H](C)CN(C)[C@H](C)[C@@H](O)[C@]1(C)O,0.03 µg/mL,1 µg/mL,0.5 µg/mL,1 µg/mL,16 µg/mL,1 µg/mL,32 µg/mL,32 µg/mL,32 µg/mL,1 µg/mL,–,–,–,–,–,–
CC[C@H]1OC(=O)[C@H](C)[C@@H](O[C@H]2C[C@@](C)(OC)[C@@H](OC(=O)NCc3cn(Cc4cccc(C)c4)nn3)[C@H](C)O2)[C@H](C)[C@@H](O[C@@H]2O[C@H](C)C[C@H](N(C)C)[C@H]2O)[C@](C)(O)C[C@@H](C)CN(C)[C@H](C)[C@H]2OC(=O)O[C@@]21C,0.25 µg/mL,2 µg/mL,1 µg/mL,2 µg/mL,32 µg/mL,4 µg/mL,128 µg/mL,64 µg/mL,64 µg/mL,2 µg/mL,–,–,–,–,–,–
CC[C@H]1OC(=O)[C@H](C)[C@@H](O[C@H]2C[C@@](C)(OC)[C@@H](OC(=O)NCc3cn(Cc4c(Cl)cccc4Cl)nn3)[C@H](C)O2)[C@H](C)[C@@H](O[C@@H]2O[C@H](C)C[C@H](N(C)C)[C@H]2O)[C@](C)(O)C[C@@H](C)CN(C)[C@H](C)[C@H]2OC(=O)O[C@@]21C,0.125 µg/mL,4 µg/mL,1 µg/mL,0.25 µg/mL,32 µg/mL,1 µg/mL,128 µg/mL,64 µg/mL,16 µg/mL,0.25 µg/mL,128,16,1024,–,–,–
CC[C@H]1OC(=O)[C@H](C)[C@@H](O[C@H]2C[C@@](C)(OC)[C@@H](OC(=O)NCc3cn(Cc4ccc(C)cc4)nn3)[C@H](C)O2)[C@H](C)[C@@H](O[C@@H]2O[C@H](C)C[C@H](N(C)C)[C@H]2O)[C@](C)(O)C[C@@H](C)CN(C)[C@H](C)[C@H]2OC(=O)O[C@@]21C,0.25 µg/mL,4 µg/mL,1 µg/mL,1 µg/mL,64 µg/mL,2 µg/mL,128 µg/mL,64 µg/mL,64 µg/mL,1 µg/mL,–,–,–,–,–,–
CC[C@H]1OC(=O)[C@H](C)[C@@H](O[C@H]2C[C@@](C)(OC)[C@@H](OC(=O)NCc3cn(Cc4ccc([N+](=O)[O-])cc4)nn3)[C@H](C)O2)[C@H](C)[C@@H](O[C@@H]2O[C@H](C)C[C@H](N(C)C)[C@H]2O)[C@](C)(O)C[C@@H](C)CN(C)[C@H](C)[C@@H](O)[C@]1(C)O,0.03 µg/mL,1 µg/mL,1 µg/mL,2 µg/mL,16 µg/mL,1 µg/mL,32 µg/mL,32 µg/mL,64 µg/mL,1 µg/mL,–,–,–,–,–,–
CC[C@H]1OC(=O)[C@H](C)[C@@H](O[C@H]2C[C@@](C)(OC)[C@@H](OC(=O)NCc3cn(Cc4ccccc4C)nn3)[C@H](C)O2)[C@H](C)[C@@H](O[C@@H]2O[C@H](C)C[C@H](N(C)C)[C@H]2O)[C@](C)(O)C[C@@H](C)CN(C)[C@H](C)[C@@H](O)[C@]1(C)O,0.03 µg/mL,1 µg/mL,0.25 µg/mL,0.5 µg/mL,16 µg/mL,0.5 µg/mL,16 µg/mL,64 µg/mL,64 µg/mL,0.5 µg/mL,–,–,–,–,–,–
CC[C@H]1OC(=O)[C@H](C)[C@@H](O[C@H]2C[C@@](C)(OC)[C@@H](OC(=O)NCc3cn(Cc4ccccc4Cl)nn3)[C@H](C)O2)[C@H](C)[C@@H](O[C@@H]2O[C@H](C)C[C@H](N(C)C)[C@H]2O)[C@](C)(O)C[C@@H](C)CN(C)[C@H](C)[C@@H](OC(=O)NCc2ccc(OC)cc2)[C@]1(C)O,< 0.002 µg/mL,0.03 µg/mL,0.125 µg/mL,0.03 µg/mL,16 µg/mL,0.06 µg/mL,32 µg/mL,8 µg/mL,8 µg/mL,0.125 µg/mL,1024 - 2133,32 - 133,1024 - 2048,1024 - 2133,32 - 133,1024 - 2048
